Data set [1] relates to serum cytokines (IL-6, mKC, MCP-1). In words: Serum cytokines 24 hours after immunization. In kind it is in vivo. The procedure: Serum cytokines are measured 24 hours after immunization with compound 6, with or without aluminium hydroxide adjuvant, or with buffer alone. Levels of IL-6 and mKC are both about ˜4-fold higher after administration of compound 6 without adjuvant, and levels of MCP-1 are ˜20-fold higher (compared to vehicle alone). […] Similarly, adsorption to aluminium hydroxide adjuvant decreases both the proportion of CD4+ T-cells which are also CD69+ and the proportion of CD19+ B-cells which are also CD86+, and this effect is seen in both the spleen and in draining lymph nodes. For example, adsorption reduces the proportion of CD86+ B-cells from ˜75% to ˜15%.

A further data set deals with strain NZ98. In words: Serum bactericidal antibody (SBA) assay after immunization with 5CVMB. The format is in vivo, MenB. Particulars: compound pre-adsorbed to aluminium hydroxide adjuvant (25 μg or 100 μg) vs adjuvant alone or compound alone. As for the experimental part:
The MenB antigens are tested for in vivo immunogenic potency using a serum bactericidal antibody (SBA) assay.

Data set [2] is described as follows: Adsorption to aluminum hydroxide, LC-MS/MS of supernatant. The following applies: 10 mM histidine buffer pH 6.8; final compound concentration 0.1 mg/mL; 37° C. for 5 hours; 100% minus % unbound. As for the experimental part:
The resulting solution was diluted 10-fold with blank histidine buffer to a final compound concentration of 0.1 mg/mL. Diluted solutions were incubated at 37° C. for 5 hours. The samples were centrifuged at 14,000 rpm for 10 minutes to pellet the insoluble. The supernatant (along with an internal standard) was then evaluated by LC-MS/MS using a ballistic gradient (from 5% CH3CN-0.5% formic acid to 95% CH3CN-1.0% formic acid in 3.5 minutes) on a Waters Atlantis dC18 (50 mm×2.1 mm) column at room temperature against a calibration curve prepared at known compound concentrations ranging from 0.005 to 50 μM. The concentration in the supernatant was calculated as % unbound to alum compared to control; the % bound to alum was calculated as 100% minus % unbound.

Data set [3] is described as follows: Muscle levels 24 hours after intramuscular injection. Particulars: 24 hours after intramuscular injection (100 μg) with protein antigens, Balb/C mice.
Data set [4] concerns CD4+ T-cells, CD19+ B-cells. In words: Activation markers on T-cells and B-cells in spleen and draining lymph nodes. The format is in vivo.
A further data set concerns five different strains. In words: Strain coverage of sera after immunization with modified 5CVMB. In kind it is in vivo, MenB. The following applies: compound pre-adsorbed to aluminium hydroxide. From the text: 2010 claiming priority from U.S. Ser. No. 61/237,576 (SEQ ID NO: 126 therein).
[5] abbreviates: in combination with aluminium hydroxide adjuvant.
The mark [6] stands for this setting: with aluminium hydroxide adjuvant.
Where [7] appears, read: without aluminium hydroxide adjuvant.

Molecules are shown by their SMILES. Bounds are passed on as bounds.

Take `Cc1ccc2c(c1)nc(N)c1ncc(CCc3ccc(OCCOCCOCCC(F)(F)P(=O)(O)O)cc3C)cc12` [Compound 6, 3-(2-(2-(4-(2-(5-amino-8-methylbenzo[f][1,7]naphthyridin-2-yl)ethyl)-3-methylphenoxy)ethoxy)ethoxy)-1,1-difluoropropylphosphonic acid]: the “serum IL-6 level compared to vehicle alone” value in data set [1] (setting [5]) is < 2 fold; in data set [1] (without adjuvant), ~4 fold. Moreover, the figures for the “serum MCP-1 level compared to vehicle alone” value in data set [1] (setting [5]) and in data set [1] (without adjuvant) were < 2 fold and ~20 fold, respectively. In addition, the “serum mKC level compared to vehicle alone” value in data set [1] (setting [5]) is recorded as < 2 fold; in data set [1] (without adjuvant), ~4 fold. In the data set on strain NZ98, the “bactericidal (SBA) titer against strain NZ98” value was “large increase in SBA titer”. Besides, in data set [2], the “% bound to alum” value came out at 98.2%. Moreover, the “muscle level of compound” value is “readily detected” in data set [3] (setting [6]) and “undetectable” in data set [3] (setting [7]). Further, the entries for the “proportion of CD86+ B-cells” value in data set [4] (adsorbed to aluminium hydroxide adjuvant) and in data set [4] (without adsorption to aluminium hydroxide adjuvant) were ~15% and ~75%, respectively. Moreover, the “effect of adsorption on proportion of CD4+ T-cells which are also CD69+” value in data set [4] (adsorbed vs unadsorbed, spleen and draining lymph nodes) is “decreases”.
With `Cc1cc(OCCOCCOCCP(=O)(O)O)ccc1CCc1cnc2c(N)nc3cc(CCC(=O)O)ccc3c2c1` [Compound 20, 3-(5-amino-2-(2-methyl-4-(2-(2-(2-phosphonoethoxy)ethoxy)ethoxy)phenethyl)benzo[f][1,7]naphthyridin-8-yl)propanoic acid], in data set [2], the “% bound to alum” value was 97.0%. In the data set with five different strains, the “strain coverage compared to aluminium hydroxide alone” value is “improves the strain coverage”. In addition, the entries for the “muscle level of compound” value in data set [3] (setting [6]) and in data set [3] (setting [7]) were “readily detected” and “undetectable”, respectively.

The record behind these values is patent US9950062B2, “Compounds and compositions as TLR activity modulators” (priority 2009, dated 2018).
